Measurements as given in patent publication US4217357A, “Inhibition of thromboxane synthetase with 3-(imidazol-1-ylalkyl)indoles” (Pfizer Inc., priority 1978, dated 1980).

Assays:
prostacyclin synthetase [1] = target: T1, prostacyclin synthetase (Sus scrofa, UniProt A0A5G2QT35); experiment: Prostacyclin (PGI2) synthetase in vitro enzyme assay; type: biochemical; conditions: pig aorta microsomes, PGH2, 22° C., 30 seconds; 5 min pre-incubation; read-out: Concentration causing 50% inhibition of (3) prostacyclin synthetase
T1 construct: Pig aorta microsomes; from tissue; host or cells: pig aorta microsomes
T1 sequence (A0A5G2QT35 1-497): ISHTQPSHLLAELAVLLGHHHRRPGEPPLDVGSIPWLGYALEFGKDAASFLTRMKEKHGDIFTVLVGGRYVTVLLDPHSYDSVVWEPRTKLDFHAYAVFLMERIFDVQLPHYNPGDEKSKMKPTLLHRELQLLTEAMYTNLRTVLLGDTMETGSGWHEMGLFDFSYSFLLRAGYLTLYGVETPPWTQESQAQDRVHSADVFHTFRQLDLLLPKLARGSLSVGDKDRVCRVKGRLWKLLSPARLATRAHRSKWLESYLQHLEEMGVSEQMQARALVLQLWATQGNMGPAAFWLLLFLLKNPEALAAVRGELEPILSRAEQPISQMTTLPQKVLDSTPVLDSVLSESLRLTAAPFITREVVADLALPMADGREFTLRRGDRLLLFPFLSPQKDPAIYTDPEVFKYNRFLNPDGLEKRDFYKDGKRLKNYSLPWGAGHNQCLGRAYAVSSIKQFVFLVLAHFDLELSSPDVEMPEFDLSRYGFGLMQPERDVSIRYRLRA

thromboxane synthetase = target: T2, thromboxane synthetase (Homo sapiens, UniProt P24557); experiment: Thromboxane A2 (TxA2) synthetase in vitro enzyme assay; type: biochemical; conditions: for IC50: indomethacin-pretreated human platelet microsomes, PGH2, 0° C., 2 min, 5 min pre-incubation, read-out: Concentration causing 50% inhibition of (1) thromboxane synthetase; for Ratio of (3) to (1): prostacyclin synthetase / thromboxane synthetase 50% inhibition concentrations
T2 construct: Indomethacin-pretreated human platelet microsomes; from tissue; host or cells: human platelet microsomes
T2 sequence (P24557 1-533): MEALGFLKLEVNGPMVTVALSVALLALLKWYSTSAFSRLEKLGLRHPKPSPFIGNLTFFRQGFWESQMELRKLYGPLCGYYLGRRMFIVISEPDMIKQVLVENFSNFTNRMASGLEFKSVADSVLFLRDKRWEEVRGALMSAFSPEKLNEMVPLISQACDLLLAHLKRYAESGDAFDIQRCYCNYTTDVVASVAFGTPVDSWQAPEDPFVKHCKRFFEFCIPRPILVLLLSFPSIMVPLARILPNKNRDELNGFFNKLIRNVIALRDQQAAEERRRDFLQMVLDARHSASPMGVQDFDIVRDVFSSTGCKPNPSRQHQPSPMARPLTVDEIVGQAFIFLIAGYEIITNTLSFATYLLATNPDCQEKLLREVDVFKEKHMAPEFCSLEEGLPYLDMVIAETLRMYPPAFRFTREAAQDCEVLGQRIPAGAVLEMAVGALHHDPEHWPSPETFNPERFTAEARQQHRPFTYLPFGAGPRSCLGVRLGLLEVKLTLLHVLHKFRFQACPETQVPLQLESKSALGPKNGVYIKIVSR
Procedure: Indomethacin-pretreated human platelet microsomes (Science, 1976, 193, 163) are incubated with PGH2 (produced as described in test No. 1) at 0° C. for a period of two minutes, and aliquots of the reaction mixture are then superfused over two rabbit aorta spirals which are separated by a delay coil (2 min.). The latter is required in order to allow for the selective decay of the more unstable thromboxane A2 (Proc. Nat. Acad. Sci., 1975, 72, 2994), thereby enabling separate measurement of the increased isometric tension due to the TxA2 formed and the PGH2 remaining to take place. The test compound is then pre-incubated with the enzyme for a period of five minutes, and its ability to inhibit the thromboxane synthetase enzyme is measured as its reduction of the TxA2 component of the isometric tension.

cyclo-oxygenase = target: T3, cyclo-oxygenase (Ovis aries, UniProt P05979); experiment: Cyclo-oxygenase in vitro enzyme assay; type: biochemical; conditions: ram seminal vesicle microsomes, arachidonic acid 100 μM, 22° C., 1 min; 5 min pre-incubation; read-out: Concentration causing 50% inhibition of (2) cyclo-oxygenase
T3 construct: Ram seminal vesicle microsomes; from tissue; host or cells: ram seminal vesicle microsomes
T3 sequence (P05979 25-600): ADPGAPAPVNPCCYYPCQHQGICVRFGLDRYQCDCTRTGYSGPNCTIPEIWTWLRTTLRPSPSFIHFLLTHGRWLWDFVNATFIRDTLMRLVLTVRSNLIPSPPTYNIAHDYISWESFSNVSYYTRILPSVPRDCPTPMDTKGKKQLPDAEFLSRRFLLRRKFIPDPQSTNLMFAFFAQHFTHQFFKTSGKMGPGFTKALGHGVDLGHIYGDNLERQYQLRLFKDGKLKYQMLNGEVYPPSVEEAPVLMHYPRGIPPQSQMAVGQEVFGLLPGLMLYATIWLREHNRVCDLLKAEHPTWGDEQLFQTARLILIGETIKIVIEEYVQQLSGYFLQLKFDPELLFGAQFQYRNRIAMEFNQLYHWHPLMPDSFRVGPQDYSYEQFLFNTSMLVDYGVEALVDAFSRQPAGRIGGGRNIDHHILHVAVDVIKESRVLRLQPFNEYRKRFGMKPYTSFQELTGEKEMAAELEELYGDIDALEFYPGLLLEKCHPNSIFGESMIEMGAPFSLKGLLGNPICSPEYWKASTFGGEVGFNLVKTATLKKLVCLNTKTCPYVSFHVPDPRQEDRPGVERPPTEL
Procedure: The effect of the compounds of the formula (I) on the thromboxane synthetase enzyme, and the prostacyclin synthetase and cyclo-oxygenase enzymes has been measured by the following in vitro enzyme assay tests:
Ram seminal vesicle microsomes (Biochemistry, 1971, 10, 2372) are incubated with arachidonic acid (100 μM) at 22° C. for a period of one minute so as to produce PGH2, and aliquots of this reaction mixture are then injected into a stream of Krebs-bicarbonate at 37° C. [containing a mixture of antagonists (Nature, […], 218, 1135) and indomethacin (Brit. J. Pharmacol., 1972, 45, 451)] which is superfusing a spirally-cut rabbit aorta strip (Nature, 1969, 223, 29). The ability of a compound to inhibit the enzyme is measured by comparing the increases in isometric tension produced by PGH2 in the absence of the test compound and again, following pre-incubation of the enzyme with the test compound for a period of five minutes.

[2] = tested on: human blood platelet aggregation; conditions: variety of aggregating agents; cited from earlier work
rabbit = conditions: intravenous arachidonic acid, rabbits; cited from earlier work
aggregation of platelets = conditions: abdominal aorta of rats in vivo; cited from earlier work
prostacyclin synthetase [3] = target: T1, prostacyclin synthetase; conditions: pre-incubation of the enzyme with the selective PGI2 synthetase inhibitor; cited from earlier work
stroke and heart attack = conditions: clinical evaluation; cited from earlier work
cyclo-oxygenase enzyme = conditions: in words; cited from earlier work

Compound	IC50 (prostacyclin synthetase [1])	IC50 (thromboxane synthetase)	Ratio of (3) to (1) (thromboxane synthetase)	IC50 (cyclo-oxygenase)	other results
CC(C)c1[nH]c2ccccc2c1Cn1ccnc1 [Example I, 3-(imidazol-1-ylmethyl)-2-isopropylindole]	> 100 µM	0.017 µM	> 6,000	> 100 µM	
Oc1ccc(-c2[nH]c3ccccc3c2Cn2ccnc2)cc1 [L, 2-(p-hydroxyphenyl)-3-(imidazol-1-ylmethyl)indole]	3 µM	0.0066 µM	450	> 100 µM	
O=C1C(CC[S+]([O-])c2ccccc2)C(=O)N(c2ccccc2)N1c1ccccc1 (centres unmarked) [sulphinpyrazone]					inhibitory activity in vitro against aggregating agents [2]: show inhibitory activity in vitro; protection from the lethal effect of arachidonic acid injection (rabbit): protect the rabbit from the lethal effect of the injection; prevention of aggregation of platelets in extra corporeal loop (aggregation of platelets): prevent the aggregation of platelets
Cn1cc(Cn2ccnc2)c2ccccc21 [XXVII, 3-(imidazol-1-ylmethyl)-1-methylindole]	> 100 µM	0.002 µM	> 50,000	> 100 µM	
Cc1ccc(-c2[nH]c3ccccc3c2Cn2ccnc2)cc1 [XVII, 3-(imidazol-1-ylmethyl)-2-(p-tolyl)indole]	2 µM	0.00025 µM	8,000	> 100 µM	
COc1ccc2[nH]c(C)c(Cn3ccnc3)c2c1 [Example V, 3-(imidazol-1-ylmethyl)-5-methoxy-2-methylindole]	4 µM	0.062 µM	65	> 100 µM	
CCCCCC(/C=C/C=C\C/C=C\C/C=C\CCCC(=O)O)OO (centres unmarked) [15-hydroperoxy-arachidonic acid]					prevention of the decrease in PGH2-induced tension (prostacyclin synthetase [3]): prevented completely
Cl.c1ccc(Cn2cc(Cn3ccnc3)c3ccccc32)cc1 [Example XXVI, 1-benzyl-3-(imidazol-1-ylmethyl)indole hydrochloride]	1 µM	0.065 µM	15	> 100 µM	
c1ccc2c(Cn3ccnc3)c(C3CCCCC3)[nH]c2c1 [XII, 2-cyclohexyl-3-(imidazol-1-ylmethyl)indole]	21 µM	0.0003 µM	70,000	> 100 µM	
COc1ccc2[nH]cc(Cn3ccnc3)c2c1 [IV, 3-(imidazol-1-ylmethyl)-5-methoxyindole]	100 µM	0.2 µM	500	> 100 µM	
Cc1cccc2c(Cn3ccnc3)c[nH]c12 [Example X, 3-(imidazol-1-ylmethyl)-7-methylindole]	> 100 µM	0.0084 µM	> 12,000	> 100 µM	
CC(=O)Oc1ccccc1C(=O)O [aspirin]					inhibitory activity in vitro against aggregating agents [2]: show inhibitory activity in vitro; clinical results in prevention of stroke and heart attack (stroke and heart attack): some encouraging results; protection from the lethal effect of arachidonic acid injection (rabbit): protect the rabbit from the lethal effect of the injection; effect on prostacyclin and thromboxane A2 levels (cyclo-oxygenase enzyme): reduce both the prostacyclin and thromboxane A2 levels; inhibition of the cyclo-oxygenase enzyme (cyclo-oxygenase enzyme): inhibit the cyclo-oxygenase enzyme

Further compounds by falling IC50 (prostacyclin synthetase [1]), results first:

IC50 (prostacyclin synthetase [1])	IC50 (thromboxane synthetase)	Ratio of (3) to (1) (thromboxane synthetase)	IC50 (cyclo-oxygenase)	Compound	other results
650 µM	0.03 µM	22,000	> 1000 µM	c1ccc2c(Cn3ccnc3)c[nH]c2c1 [*, 3-(imidazol-1-ylmethyl)-indole]	
40 µM	0.003 µM	13,000	> 100 µM	Clc1ccccc1-c1[nH]c2ccccc2c1Cn1ccnc1 [Example XX, 2-(o-chlorophenyl)-3-(imidazol-1-ylmethyl)indole]	
30 µM	0.012 µM	2,500	> 100 µM	Cc1[nH]c2ccccc2c1Cn1ccnc1 [II, 3-(imidazol-1-ylmethyl)-2-methylindole]	
17 µM	0.1 µM	170	> 100 µM	Brc1ccc2[nH]cc(Cn3ccnc3)c2c1 [IX, 5-bromo-3-(imidazol-1-ylmethyl)indole]	
0.84 µM	0.0001 µM	8,400	> 100 µM	c1ccc2c(Cn3ccnc3)c(C3CC3)[nH]c2c1 [XIII, 2-cyclopropyl-3-(imidazol-1-ylmethyl)indole]	
